In patent US20110002843A1, “METHOD OF DETECTING MYOCARDIAL DYSFUNCTION IN PATIENTS HAVING A HISTORY OF ASTHMA OR BRONCHOSPASM” (priority 2005, published 2011):
“Also recorded” adds a separate entry of the source.

Test: Pulmonary responses and safety in human subjects with mild, intermittent asthma (single-blind and double-blind parts)
Type: in vivo
Method: Methodology: The study consisted of 2 parts, a Single-Blind Part and a Double-Blind Part. The dose escalating, Single-Blind Part enrolled subjects with mild, intermittent asthma and consisted of 3 sequentially enrolled dosing cohorts with 8 subjects per cohort, such that Dosing Cohorts 1, 2 and 3 received binodenoson target doses of 0.5 μg/kg, 1.0 μg/kg and 1.5 μg/kg, respectively. All 8 subjects in a dosing cohort must have completed dosing at the assigned dose and a medical review of each cohort must have been acceptable before enrollment in the next cohort began. The Double-Blind Part was initiated only if the medical review of all safety data from the Single-Blind Part was acceptable. In the Double Blind Part, subjects with mild, intermittent asthma were randomly assigned in a 2:1 ratio to receive either binodenoson 1.5 μg/kg (n=40 planned) or placebo control (n=20 planned).
Both study parts were comprised of Screening, Treatment and Follow-Up Visits. The Screening Visit occurred 7 to 14 days before the Treatment Visit and consisted of a physical examination, medical history and application of inclusion and exclusion criteria. Subjects were instructed to measure peak expiratory flow (PEF) and asthma symptoms during a period of at least 7 days prior to the Treatment Visit. Subjects were to continue to meet all Screening eligibility criteria at the Treatment Visit and forced expiratory volume in 1 second (FEV1) was to remain within 80% of predicted for subjects to be eligible for dosing. All subjects enrolled in the Single-Blind Part and subjects randomized to receive binodenoson in the Double-Blind Part received 3 intravenous (IV) injections during the Treatment Visit: (1) placebo; (2) a low, challenge binodenoson dose to detect potential hypersensitivity reactions; and (3) an assigned binodenoson test dose. Subjects randomized to receive placebo in the Double Blind Part received 3 placebo injections. The Follow-Up Visit occurred 2 to 4 days following the Treatment Visit.
Eligible subjects were males or non-pregnant, nonlactating females ≧18 years of age weighing <350 pounds with a medical history of mild, intermittent asthma (as defined in the “Guidelines for the Diagnosis and Management of Asthma” prepared by the National Institutes of Health [NIH]) within 6 months of Screening.
Subjects were not eligible for the study if they had resting sitting systolic blood pressure (SBP)<100 or >140 mmHg, diastolic blood pressure (DBP)<60 or >90 mmHg, pulse rate >95 beats per minute (bpm), or a lower limit FEV1 at rest of <80% of the predicted value at Screening.
Dose and Mode of Administration: A stock solution of binodenoson (25 μg/mL) was administered as a bolus injection over 30 seconds (0.1 μg/kg=0.004 mL/kg of stock solution, 0.5 μg/kg=0.02 mL/kg of stock solution, 1.0 μg/kg=0.04 mL/kg of stock solution and 1.5 μg/kg=0.06 mL/kg of stock solution).
Duration of Treatment: Each subject received three 30-second bolus IV injections separated by ≧90 minutes in both the Single Blind and Double-Blind Parts of the study.
Criteria for Evaluation: The primary safety endpoint was clinically significant bronchoconstriction, defined as a ≧20% decrease in FEV1 from the predrug baseline following binodenoson administration. Other safety assessments included need for rescue medication, regular measurements of pulmonary function (FEV1 [% predicted], forced vital capacity [FVC] and forced expiratory flow during the middle half of the FVC [FEF25%-75%]), vital signs, pulse oximetry, physical examination findings, electrocardiogram (ECG) results, clinical laboratory results and adverse events.
Statistical Methods: All data collected in the study were summarized by treatment (placebo; 0.1 μg/kg binodenoson challenge; or 0.5, 1.0, or 1.5 μg/kg binodenoson) and study Part (Single-Blind or Double-Blind with univariate summaries). Continuous variables were summarized with descriptive statistics (n, mean, median, standard deviation [SD] and minimum and maximum). […]

[1] = double-blind, Binodenoson Group, second injection 0.1 μg/kg iv bolus, 15 minutes
[2] = double-blind, Binodenoson Group, second injection 0.1 μg/kg iv bolus, 90 minutes
[3] = double-blind, binodenoson 1.5 μg/kg group
[4] = double-blind, third injection 1.5 μg/kg
[5] = double-blind, third injection 1.5 μg/kg iv bolus, 5 min
[6] = double-blind, third injection 1.5 μg/kg iv bolus, 15 min
[7] = double-blind, third injection 1.5 μg/kg iv bolus, 45 min
[8] = double-blind, third injection 1.5 μg/kg iv bolus, 90 min
[9] = single-blind, Cohort 1, second injection 0.1 μg/kg iv bolus, 15 minutes
[10] = single-blind, Cohort 1, second injection 0.1 μg/kg iv bolus, 90 minutes
[11] = single-blind, Cohort 2, second injection 0.1 μg/kg iv bolus, 15 minutes
[12] = single-blind, Cohort 2, second injection 0.1 μg/kg iv bolus, 90 minutes
[13] = single-blind, Cohort 3, second injection 0.1 μg/kg iv bolus, 15 minutes
[14] = single-blind, Cohort 3, second injection 0.1 μg/kg iv bolus, 90 minutes

Nc1nc(N/N=C/C2CCCCC2)nc2c1ncn2[C@@H]1O[C@H](CO)[C@@H](O)[C@H]1O (stereo in doubt) [Binodenoson, 2-{2-[(Cyclohexyl)methylene]hydrazino}adenosine]
changes from baseline in mean FEV1, FEV1 (% predicted), FEF25%-75%, FVC (after any injection, single- or double-blind part): No clinically significant changes from baseline
safety and tolerability (doses up to 1.5 μg/kg): safe and well tolerated
FEF25%-75% Mean % Change from Baseline (SD) [1]: 1.531 (5.261) %
FEF25%-75% Mean (SD) [1]: 2.946 (0.973)
FEV1 (% predicted) Mean % Change from Baseline (SD) [1]: 0.3 (2.4) %
FEV1 (% predicted) Mean (SD) [1]: 88.3 (6.9) % predicted
FEV1 (L) Mean % Change from Baseline (SD) [1]: 0.421 (2.525) %
FEV1 (L) Mean (SD) [1]: 3.170 (0.590) L
FVC Mean % Change from Baseline (SD) [1]: 0.055 (2.683) %
FVC Mean (SD) [1]: 4.051 (0.824)
FEF25%-75% Mean % Change from Baseline (SD) [2]: 1.181 (6.739) %
FEF25%-75% Mean (SD) [2]: 2.965 (1.071)
FEV1 (% predicted) Mean % Change from Baseline (SD) [2]: −0.1 (2.9) %
FEV1 (% predicted) Mean (SD) [2]: 87.9 (7.7) % predicted
FEV1 (L) Mean % Change from Baseline (SD) [2]: −0.042 (3.348) %
FEV1 (L) Mean (SD) [2]: 3.152 (0.574) L
FVC Mean % Change from Baseline (SD) [2]: −0.457 (3.163) %
FVC Mean (SD) [2]: 4.021 (0.778)
abdominal discomfort, treatment emergent AE [3]: 5%
dizziness, treatment emergent AE [3]: 18%
flushing, treatment emergent AE [3]: 15%
headache, treatment emergent AE [3]: 5%
nausea, treatment emergent AE [3]: 8%
sinus tachycardia, treatment emergent AE [3]: 8%
tachycardia, treatment emergent AE [3]: 31%
changes from baseline in mean FEV1, FEV1 (% predicted), FEF25%-75%, FVC (double-blind, binodenoson 1.5 μg/kg group, after first or second injections): no clinically significant changes from baseline
subjects who experienced AEs (double-blind, binodenoson 1.5 μg/kg subjects (placebo 19%)): 69%
changes from baseline in mean FEV1, FEV1 (% predicted), FEF25%-75%, FVC [4]: No clinically significant changes from baseline
treatment differences in pulmonary function versus placebo [4]: no statistically significant treatment differences
FEF25%-75% Mean % Change from Baseline (SD) [5]: −0.877 (6.999) %
FEF25%-75% Mean (SD) [5]: 2.913 (0.981)
FEV1 (% predicted) Mean % Change from Baseline (SD) [5]: 0.1 (3.3) %
FEV1 (% predicted) Mean (SD) [5]: 88.0 (8.7) % predicted
FEV1 Mean % Change from Baseline (SD) [5]: 0.028 (3.849) %
FEV1 Mean (SD) [5]: 3.153 (0.589)
FVC Mean % Change from Baseline (SD) [5]: 0.186 (4.299) %
FVC Mean (SD) [5]: 4.022 (0.746)
FEF25%-75% Mean % Change from Baseline (SD) [6]: −0.477 (6.555) %
FEF25%-75% Mean (SD) [6]: 2.930 (1.012)
FEV1 (% predicted) Mean % Change from Baseline (SD) [6]: −0.3 (2.6) %
FEV1 (% predicted) Mean (SD) [6]: 87.6 (8.5) % predicted
FEV1 Mean % Change from Baseline (SD) [6]: −0.405 (3.079) %
FEV1 Mean (SD) [6]: 3.137 (0.574)
FVC Mean % Change from Baseline (SD) [6]: −0.309 (3.272) %
FVC Mean (SD) [6]: 4.004 (0.755)
FEF25%-75% Mean % Change from Baseline (SD) [7]: 0.388 (7.548) %
FEF25%-75% Mean (SD) [7]: 2.940 (0.959)
FEV1 (% predicted) Mean % Change from Baseline (SD) [7]: 0.1 (3.3) %
FEV1 (% predicted) Mean (SD) [7]: 88.0 (8.3) % predicted
FEV1 Mean % Change from Baseline (SD) [7]: 0.056 (3.888) %
FEV1 Mean (SD) [7]: 3.156 (0.598)
FVC Mean % Change from Baseline (SD) [7]: −0.133 (4.369) %
FVC Mean (SD) [7]: 4.015 (0.780)
FEF25%-75% Mean % Change from Baseline (SD) [8]: −0.335 (8.198) %
FEF25%-75% Mean (SD) [8]: 2.923 (0.963)
FEV1 (% predicted) Mean % Change from Baseline (SD) [8]: 1.1 (3.2) %
FEV1 (% predicted) Mean (SD) [8]: 89.0 (7.7) % predicted
FEV1 Mean % Change from Baseline (SD) [8]: 1.228 (3.835) %
FEV1 Mean (SD) [8]: 3.191 (0.588)
FVC Mean % Change from Baseline (SD) [8]: 1.755 (3.720) %
FVC Mean (SD) [8]: 4.093 (0.800)
changes in SBP, pulse rate and DBP (double-blind, magnitude greater in binodenoson than placebo group): Transient increases in SBP and pulse rate and decreases in DBP
need for rescue medication (single- and double-blind parts): No subject required rescue medication
clinically significant bronchoconstriction (≧20% decrease in FEV1 from predrug baseline) (single- and double-blind parts, doses up to 1.5 μg/kg): No bronchoconstriction events; also recorded: did not induce bronchoconstriction
FEF25%-75% Mean % Change from Baseline (SD) [9]: 0.526 (7.433) %
FEF25%-75% Mean (SD) [9]: 2.994 (0.911)
FEV1 (% predicted) Mean % Change from Baseline (SD) [9]: 0.1 (3.6) %
FEV1 (% predicted) Mean (SD) [9]: 90.5 (12.1) % predicted
FEV1 (L) Mean % Change from Baseline (SD) [9]: 0.136 (3.922) %
FEV1 (L) Mean (SD) [9]: 3.908 (0.824) L
FVC Mean % Change from Baseline (SD) [9]: −0.003 (2.480) %
FVC Mean (SD) [9]: 5.516 (1.130)
FEF25%-75% Mean % Change from Baseline (SD) [10]: 9.136 (9.019) %
FEF25%-75% Mean (SD) [10]: 3.241 (0.946)
FEV1 (% predicted) Mean % Change from Baseline (SD) [10]: 4.5 (3.5) %
FEV1 (% predicted) Mean (SD) [10]: 94.9 (12.3) % predicted
FEV1 (L) Mean % Change from Baseline (SD) [10]: 5.043 (4.097) %
FEV1 (L) Mean (SD) [10]: 4.101 (0.867) L
FVC Mean % Change from Baseline (SD) [10]: 2.379 (3.221) %
FVC Mean (SD) [10]: 5.654 (1.188)
FEF25%-75% Mean % Change from Baseline (SD) [11]: 0.724 (4.318) %
FEF25%-75% Mean (SD) [11]: 3.665 (1.555)
FEV1 (% predicted) Mean % Change from Baseline (SD) [11]: 1.4 (2.5) %
FEV1 (% predicted) Mean (SD) [11]: 94.8 (13.2) % predicted
FEV1 (L) Mean % Change from Baseline (SD) [11]: 1.292 (2.662) %
FEV1 (L) Mean (SD) [11]: 3.944 (0.895) L
FVC Mean % Change from Baseline (SD) [11]: 2.129 (3.295) %
FVC Mean (SD) [11]: 5.120 (1.195)
FEF25%-75% Mean % Change from Baseline (SD) [12]: −2.574 (12.173) %
FEF25%-75% Mean (SD) [12]: 3.471 (1.285)
FEV1 (% predicted) Mean % Change from Baseline (SD) [12]: 0.3 (4.2) %
FEV1 (% predicted) Mean (SD) [12]: 93.6 (13.0) % predicted
FEV1 (L) Mean % Change from Baseline (SD) [12]: 0.165 (4.367) %
FEV1 (L) Mean (SD) [12]: 3.895 (0.854) L
FVC Mean % Change from Baseline (SD) [12]: 1.624 (3.599) %
FVC Mean (SD) [12]: 5.100 (1.219)
FEF25%-75% Mean % Change from Baseline (SD) [13]: 0.635 (6.670) %
FEF25%-75% Mean (SD) [13]: 2.758 (0.695)
FEV1 (% predicted) Mean % Change from Baseline (SD) [13]: 0.1 (2.7) %
FEV1 (% predicted) Mean (SD) [13]: 90.5 (8.5) % predicted
FEV1 (L) Mean % Change from Baseline (SD) [13]: 0.145 (2.786) %
FEV1 (L) Mean (SD) [13]: 3.325 (0.690) L
FVC Mean % Change from Baseline (SD) [13]: 0.480 (2.084) %
FVC Mean (SD) [13]: 4.364 (0.876)
FEF25%-75% Mean % Change from Baseline (SD) [14]: 4.324 (8.478) %
FEF25%-75% Mean (SD) [14]: 2.836 (0.636)
FEV1 (% predicted) Mean % Change from Baseline (SD) [14]: 0.9 (2.0) %
FEV1 (% predicted) Mean (SD) [14]: 91.3 (7.3) % predicted
